The text below walks through data of patent US9675070B2 (BAYER CROPSCIENCE AG, priority 2013, dated 2017).

Data set [1] relates to green peach aphid (Myzus persicae). The data set can be described thus: Myzus persicae spray test (MYZUPE). The format is in vivo. The conditions noted are these: application rate 100 g/ha; Chinese cabbage leaf discs; after 6 days. As to the method: Myzus persicae—spray test (MYZUPE)
Solvents: 78 parts by weight of acetone
(§1) • 1.5 parts by weight of dimethylformamide Emulsifier: alkylaryl polyglycol ether
(§2) To produce a suitable preparation of active compound, 1 part by weight of active compound is dissolved using the stated parts by weight of solvent and made up with water comprising an emulsifier concentration of 1000 ppm until the desired concentration is reached. To produce further test concentrations, the preparation is diluted with emulsifier-containing water.
Discs of Chinese cabbage leaves (Brassica pekinensis) infested by all stages of the green peach aphid (Myzus persicae) are sprayed with an active compound preparation of the desired concentration.
After 6 days, the efficacy in % is determined. 100% here means that all of the aphids have been killed; 0% means that no aphids have been killed.

Data set [2] concerns larvae of the mustard beetle (Phaedon cochleariae). The experiment in a line: Phaedon cochleariae spray test (PHAECO). The format is in vivo. The conditions noted are these: application rate 100 g/ha; Chinese cabbage leaf discs; after 7 days. As to the method:
Phaedon cochleariae—Spray Test (PHAECO)
(§3) Solvents: 78.0 parts by weight of acetone
as §1, §2
After 7 days, the efficacy in % is determined. 100% means that all of the beetle larvae have been killed; 0% means that none of the beetle larvae have been killed.

Data set [3] concerns greenhouse red spider mite (Tetranychus urticae), OP-resistant. The experiment in a line: Tetranychus urticae spray test, OP-resistant (TETRUR). The class given is in vivo. The conditions noted are these: application rate 100 g/ha; bean leaf discs; after 6 days. As to the method:
Tetranychus urticae—Spray Test, OP-Resistant (TETRUR)
as §3, §1, §2
Discs of bean leaves (Phaseolus vulgaris) which are infested by all stages of the greenhouse red spider mite (Tetranychus urticae) are sprayed with an active compound preparation of the desired concentration.
After 6 days, the efficacy in % is determined. 100% means that all of the spider mites have been killed; 0% means that none of the spider mites have been killed.

For data set [4], the system named is caterpillars of the armyworm (Spodoptera frugiperda). The data set can be described thus: Spodoptera frugiperda spray test (SPODFR). The format is in vivo. Conditions: application rate 100 g/ha; maize leaf discs; after 7 days. As to the method:
Spodoptera frugiperda—Spray Test (SPODFR)
as §3, §1, §2
Leaf discs of maize (Zea mays) are sprayed with an active compound preparation of the desired concentration and, after drying, populated with caterpillars of the armyworm (Spodoptera frugiperda).
After 7 days, the efficacy in % is determined. 100% means that all of the caterpillars have been killed; 0% means that none of the caterpillars have been killed.

The subject of data set [5] is adult cat fleas (Ctenocephalides felis). The experiment in a line: Ctenocephalides felis oral test (CTECFE). The format is in vivo. The conditions noted are these: application rate 100 ppm in citrated cattle blood; after 2 days. As to the method:
Ctenocephalides felis-Oral Test ([…]) Solvent: dimethyl sulphoxide To produce a suitable preparation of active compound, 10 mg of active compound are mixed with 0.5 ml of dimethyl sulphoxide. Dilution with citrated cattle blood gives the desired concentration. About 20 unfed adult cat fleas (Ctenocephalides felis) are placed into a chamber which is closed at the top and bottom with gauze. A metal cylinder whose bottom end is closed with a parafilm is placed onto the chamber. The cylinder contains the blood/active ingredient preparation, which can be imbibed by the fleas through the parafilm membrane. After 2 days, the kill in % is determined. 100% means that all of the fleas have been killed; 0% means that none of the fleas have been killed.

Data set [6] deals with L1 larvae of the Australian sheep blowfly (Lucilia cuprina). The experiment in a line: Lucilia cuprina test (LUCICU). The class given is in vivo. The conditions noted are these: application rate 100 ppm; minced horsemeat; after 2 days. As to the method: Lucilia cuprina Test (LUCICU) Solvent: dimethyl sulphoxide To produce a suitable preparation of active compound, 10 mg of active compound are mixed with 0.5 ml of dimethyl sulphoxide, and the concentrate is diluted with water to the desired concentration. About 20 L1 larvae of the Australian sheep blowfly (Lucilia cuprina) are transferred into a test vessel containing minced horsemeat and the active compound preparation of the desired concentration. After 2 days, the kill in % is determined. 100% means that all of the larvae have been killed; 0% means that none of the larvae have been killed.

The test system of data set [7] is engorged adult female cattle ticks (Boophilus microplus). The data set can be described thus: Boophilus microplus injection test (BOOPMI Inj). The format is in vivo. The conditions noted are these: application rate 20 μg/animal; injection into abdomen; assessed after 7 days. As to the method:
Boophilus microplus Injection Test (BOOPMI Inj)
(§4) Solvent: dimethyl sulphoxide
To produce a suitable preparation of active compound, 10 mg of active compound are mixed with 0.5 ml of solvent, and the concentrate is diluted with solvent to the desired concentration.
1 μl of the active compound solution is injected into the abdomen of 5 engorged adult female cattle ticks (Boophilus microplus). The animals are transferred into dishes and kept in a climate-controlled room.
(§5) The activity is assessed after 7 days by laying of fertile eggs. Eggs whose fertility is not visible from the outside are stored in a climate-controlled cabinet until the larvae hatch after about 42 days. An efficacy of 100% means that none of the ticks has laid any fertile eggs; 0% means that all eggs are fertile.

Data set [8] deals with Tick nymphs (Amblyomma hebraeum). The experiment in a line: Amblyomma hebaraeum test (AMBYHE), tick nymph immersion. Conditions: application rate 100 ppm; immersion one minute; after 42 days. The format is in vivo. As to the method: Amblyomma hebaraeum Test (AMBYHE) Solvent: dimethyl sulphoxide To produce a suitable preparation of active compound, 10 mg of active compound are mixed with 0.5 ml of dimethyl sulphoxide, and the concentrate is diluted with water to the desired concentration. Tick nymphs (Amblyomma hebraeum) are placed into perforated plastic beakers and immersed in the desired concentration for one minute. The ticks are transferred on filter paper into a Petri dish and stored in a climate-controlled cabinet. After 42 days, the kill in % is determined. 100% means that all of the ticks have been killed; 0% means that none of the ticks have been killed.

The subject of data set [9] is adult houseflies (Musca domestica). The data set can be described thus: Musca domestica test (MUSCDO). The format is in vivo. Conditions: application rate 100 ppm; after 2 days. As to the method:
Musca domestica Test (MUSCDO) Solvents: dimethyl sulphoxide To produce a suitable preparation of active compound, 10 mg of active compound are mixed with 0.5 ml of dimethyl sulphoxide, and the concentrate is diluted with water to the desired concentration. Vessels containing a sponge treated with sugar solution and the active compound preparation of the desired concentration are populated with 10 adult houseflies (Musca domestica). After 2 days, the kill in % is determined. 100% means that all of the flies have been killed; 0% means that none of the flies have been killed.

The subject of data set [10] is cattle ticks (Boophilus microplus) Parkhurst strain, SP-resistant. The data set can be described thus: Boophilus microplus dip test (BOOPMI Dip). The format is in vivo. Conditions: application rate 100 ppm, assessed after 7 days. As to the method: Boophilus microplus—Dip Test (BOOPMI Dip)
Test animals: cattle ticks (Boophilus microplus) Parkhurst strain, SP-resistant
as §4
10 mg of active compound are dissolved in 0.5 ml of dimethyl sulphoxide. To prepare a suitable formulation, the active compound solution is diluted with water to the concentration desired in each case.
This active compound preparation is pipetted into tubes. 8-10 adult engorged female cattle ticks (Boophilus microplus) are transferred into a further tube with holes. The tube is immersed into the active compound formulation, and all ticks are completely wetted. After the liquid has run out, the ticks are transferred on filter discs into plastic dishes and stored in a climate-controlled room.
as §5

Data set [11] deals with southern root-knot nematode (Meloidogyne incognita). The experiment in a line: Meloidogyne incognita test (MELGIN). The format is in vivo. Conditions: application rate 20 ppm; lettuce; after 14 days. As to the method: Meloidogyne incognita Test (MELGIN) Solvent: 125.0 parts by weight of acetone To prepare a suitable active compound preparation, 1 part by weight of active compound is mixed with the stated amount of solvent and the concentrate is diluted with water to the desired concentration. Vessels are filled with sand, active compound solution, an egg/larvae suspension of the southern root-knot nematode (Meloidogyne incognita) and lettuce seeds. The lettuce seeds germinate and the plants develop. On the roots, galls are formed. After 14 days, the nematicidal efficacy in % is determined by the formation of galls. 100% means that no galls have been found; 0% means that the number of galls on the treated plants corresponds to the untreated control.

Data set [12] in a line: log P determination by HPLC on reversed-phase column (C18), EEC Directive 79/831 Annex V.A8. The format is physicochemical. Conditions: method a): Agilent 1100 LC, Zorbax Eclipse Plus C18, acetonitrile/water with formic acid, gradient 10-95% in 4.25 min, 55° C. As to the method:
Agilent 1100 LC system; 50*4.6 Zorbax Eclipse Plus C18 1.8 micron; mobile phase A: acetonitrile (0.1% formic acid); mobile phase B: water (0.09% formic acid); linear gradient from 10% acetonitrile to 95% acetonitrile in 4.25 min, then 95% acetonitrile for a further 1.25 min; oven temperature 55° C.; flow rate: 2.0 ml/min. Mass detection is carried out via an Agilend MSD system.
^a)Unless indicated otherwise, the following method was used to determine the log P values and masses: The determination of the given log P values was carried out in accordance with EEC Directive 79/831 Annex V.A8 by HPLC (High Performance Liquid Chromatography) on a reversed-phase column (C18). Agilent 1100 LC system; 50*4.6 Zorbax Eclipse Plus C18 1.8 micron; mobile phase A: acetonitrile (0.1% formic acid); mobile phase B: water (0.09% formic acid); linear gradient from 10% acetonitrile to 95% acetonitrile in 4.25 min, then 95% acetonitrile for a further 1.25 min; oven temperature 55° C.; flow rate: 2.0 ml/min. Mass detection is carried out via an Agilend MSD system. ^b)Note for the alternative method for determining log P values and masses: The stated log P values were determined in accordance with EEC Directive 79/831 Annex V.A8 by HPLC (High Performance Liquid Chromatography) using a reversed-phase column (C18). Waters ACQUITY UPLC-MS system; 2.1*50 mm Zorbax Eclipse Plus C18 1.8 μm 600 bar; injection volume: 0.5 ul about 1000 ppm; mobile phase A: acetonitrile (0.1% formic acid); mobile phase B: water (0.085% formic acid); linear gradient from 10% acetonitrile to 95% acetonitrile in 1.5 min, then 95% acetonitrile for a further 0.5 min; oven temperature 60° C.; flow rate: 1.0 ml/min. Mass detection is carried out via a Waters SQD system.

As for `CC(F)C(=O)NCc1cc(-c2cnn(-c3c(C(F)(F)F)c(C(F)(F)C(F)(F)F)nn3C)c2)ccc1F` (racemic) [Ic-22], the efficacy in % worked out at 90% in data set [1], 100% in [2], 100% in [3] and 83% in [4].

For the molecule `CCC(=O)NCc1cc(-c2cnn(-c3c(C(F)(F)F)c(C(F)(F)C(F)(F)F)nn3C)c2)ccc1F` [Ic-2], the kill in % in data set [5], in data set [6], in [8] and in data set [9] was 100% each time. Moreover, the “efficacy (no laying of fertile eggs)” value in [7] and in data set [10] was 100% throughout. Besides, the efficacy in % in data set [2], in [3] and in data set [4] was 100% throughout.

Turning to `CC(=O)NCc1cc(-c2cnn(-c3c(C(F)(F)F)c(C(F)(F)C(F)(F)F)nn3C)c2)ccc1F` [Ic-4], the kill in % in data set [5], in data set [6], in data set [8] and in data set [9] was 100% each time. In addition, the “efficacy (no laying of fertile eggs)” value in data set [7] and in data set [10] was 100% each time. Besides, the efficacy in % in [2] is listed as 100%; in data set [3], 100%; in data set [4], 83%.

For `Cn1nc(C(F)(F)C(F)(F)F)c(C(F)(F)F)c1-n1cc(-c2ccc(F)c(CNC(=O)Cc3cccs3)c2)cn1` [Ic-7], the results for the kill in % in [5] and in data set [6] were 90% and 100%, respectively. In data set [7], the “efficacy (no laying of fertile eggs)” value was determined as 100%. For the same molecule, the results for the efficacy in % in data set [2], in [3] and in data set [4] were 100%, 100% and 83%, respectively. The “nematicidal efficacy in % (formation of galls)” value (“nematicidal efficacy in %” below) in [11] turned out to be 90%.

Consider `CC(=O)NCc1cncc(-c2cnn(-c3c(C(F)(F)F)c(C(F)(F)C(F)(F)F)nn3C)c2)c1` [Ic-8], for which the figures for the efficacy in % in data set [1], in [2] and in [3] were 90%, 100% and 90%, respectively.

As for `Cn1nc(C(F)(F)C(F)(F)F)c(C(F)(F)F)c1-n1cc(-c2cccc(CNC(=O)C3CC3)c2)cn1` [Ic-17], the kill in % in data set [5] worked out at 100%; in [6], 100%; in data set [8] it was 90%; in [9], 100%. In addition, the “efficacy (no laying of fertile eggs)” value in [7] and in data set [10] was 100% in each case. Also, the efficacy in % in [2] and in data set [3] was 100% throughout.

As usually defined, the chromatographic logP is a lipophilicity value derived from retention on a column. `Cn1nc(C(F)(F)C(F)(F)F)c(C(F)(F)F)c1-n1cc(-c2cccc(CNC(=O)OC(C)(C)C)c2)cn1` [Ic-18, tert-butyl {3-[2′-methyl-5′-(pentafluoroethyl)-4′-(trifluoromethyl)-2′H-1,3′-bipyrazol-4-yl]benzyl}carbamate] came in with an efficacy in % in [1] of 100%. For the same molecule, the “efficacy (no laying of fertile eggs)” value in data set [7] is 100%. Also, the chromatographic logP in data set [12] was 4.74.

In the case of `Cn1nc(C(F)(F)C(F)(F)F)c(C(F)(F)F)c1-n1cc(-c2ccc(F)c(CNC(=O)c3ccsc3)c2)cn1` [Ic-23], in data set [6], the kill in % is 95%. In addition, the “efficacy (no laying of fertile eggs)” value in data set [7] is reported as 100%. For the same molecule, in [2], the efficacy in % amounted to 100%. The “nematicidal efficacy in %” value in [11] is 90%.

On to `CCC(=O)NCc1cncc(-c2cnn(-c3c(C(F)(F)F)c(C(F)(F)C(F)(F)F)nn3C)c2)c1` [Ic-26], for which the efficacy in % is recorded as 100% in data set [1], 100% in [2], 90% in [3] and 83% in data set [4].

Consider `CCC(=O)NC(C)c1cccc(-c2cnn(-c3c(C(F)(F)F)c(C(F)(F)C(F)(F)F)nn3C)c2)c1` (stereo not shown) [Ic-33], for which the efficacy in % was determined as 90% in data set [1], 100% in data set [2] and 100% in data set [3].

For `CCC(=O)NCc1cccc(-c2ncn(-c3c(C(F)(F)F)c(C(F)(F)C(F)(F)F)nn3C)n2)c1` [Ie-1], the “nematicidal efficacy in %” value in [11] is reported as 90%.
